Literature values in US9075045B2, “Cell-based detection of APF through its interaction with CKAP4 for diagnosis of interstitial cystitis” (THE COMMONWEALTH MEDICAL COLLEGE, priority 2008, dated 2015).
Like-named read-outs stand apart in the source and are kept apart here.

Which “effect on IC symptoms” value (bladder instillation every week or two for 6 to 8 weeks) does the source give for `C[S+](C)[O-]` [dimethyl sulfoxide] here?
The value was “improve symptoms temporarily”.

For Bacillus Calmette-Guerin, which “effect on IC symptoms” value (intravesicular agent) is on record?
The value was “improve symptoms”.

For Pentosan polysulfate sodium, which “improved symptoms in % of patients” value (given orally (100 mg three times a day)) is on record?
Its value is 30%.
